Experimental data as given in patent publication US12037324B2, “Biarylmethyl heterocycles” (Université de Montréal, priority 2016, dated 2024).

Assays:
[1] = biological target: T1, AGTR1 (Homo sapiens, UniProt P30556); test: DiscoveRx IP1 accumulation assay (HTRF), agonist mode, Pathunter CHO-K1 AGTR1 β-arrestin cell line; assay type: cell-based; settings: for EC50: read-out: IP-1 EC50
T1 construct: host or cells: Pathunter CHO-K1 AGTR1 β-arrestin cell line (CHO-K1)
T1 sequence (P30556 1-359): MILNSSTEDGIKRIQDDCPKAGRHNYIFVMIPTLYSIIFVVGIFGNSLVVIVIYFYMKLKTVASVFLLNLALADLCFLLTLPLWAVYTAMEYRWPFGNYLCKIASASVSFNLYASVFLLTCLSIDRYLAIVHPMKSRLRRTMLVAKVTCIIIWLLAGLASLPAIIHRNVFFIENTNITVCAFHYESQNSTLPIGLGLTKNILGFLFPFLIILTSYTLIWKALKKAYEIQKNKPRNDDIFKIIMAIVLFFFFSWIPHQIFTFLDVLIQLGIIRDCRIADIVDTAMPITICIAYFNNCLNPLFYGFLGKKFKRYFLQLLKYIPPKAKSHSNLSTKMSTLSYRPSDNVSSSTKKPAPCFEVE
Summary of the method: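 Agonist mode in CHO-K1 AGTR1 β-arrestin cells plated 14-16 h before; compounds at varying concentrations for 90 min at 37° C, IP1 accumulation read by HTRF (D2-conjugate and anti-IP1 cryptate, 20 min room temperature). EC50 from 4-parameter logistic fit; activity given as percentage of maximal AII effect.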

[2] = biological target: T2, hAT1R (Homo sapiens, UniProt P30556); test: cell-based; settings: agonist mode; for EC50: read-out: BRET P63 EC50
T2 sequence (P30556 1-359): T1 sequence (P30556 1-359)

[3] = biological target: T1, AGTR1; test: DiscoveRx β-arrestin2 recruitment assay (enzyme complementation, Pathunter CHO-K1 AGTR1 β-arrestin cell line); assay type: cell-based; settings: DiscoveRx β-arrestin2 recruitment; for DiscoveRx β-arrestin2 Ymax (%): maximal response
Summary of the method: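 CHO-K1 cells expressing AGTR1 with β-arrestin2 enzyme-complementation reporter, plated 14-16 h ahead in 1% serum medium, then exposed to compounds for 90 min at 37° C. Chemiluminescence read after 1 h detection. EC50 (agonist) or IC50 (antagonist) from 4-parameter logistic fit; activity as percentage of All maximal effect.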

[4] = biological target: T2, hAT1R; test: BRET β-arrestin2 biosensor assay, higher receptor expression (hAT1R 5 ng/well), HEK293 cells; assay type: cell-based; settings: for EC50: High AT1R Expression
[5] = biological target: T2, hAT1R; test: cell-based; settings: section of the 42nd table ending at r951, example numbering restarts after the DiscoveRx section; read-out: β-arrestin2 EC50

Row | SMILES | IP-1 Ymax (%) [1] [%] | EC50 [1] [µM] | BRET P63 Ymax [2] [%] | EC50 [2] [µM] | EC50 [3] [µM] | DiscoveRx β-arrestin2 Ymax (%) [3] [%] | BRET β-Arrestin2 High AT1R Expression Ymax (%) [4] [%] | EC50 [4] [µM] | EC50 [5] [µM]
1 | CCc1nc2c(C)cc(C)nc2n1Cc1ccc(-c2cc(-n3cc(C(C)C)nn3)ccc2-c2nnn[nH]2)cc1 [Example 227] | 9.8 | 0.268 | 19.9 | 0.0304 | 0.032 | 51.6 | 87.8 | 0.0074 | 0.0314
2 | CCCc1cn(-c2ccc(-c3nnn[nH]3)c(-c3ccc(Cn4c(CC)nc5c(C)cc(C)nc54)cc3)c2)nn1 [Example 228] | 13.0 | 0.147 | 11.4 | 0.125 | 0.0304 | 32.1 | 93.1 | 0.0319 | 0.21
3 | CCc1nc2c(C)cc(C)nc2n1Cc1ccc(-c2cc(-n3cc(C4CCCC4)nn3)ccc2-c2nnn[nH]2)cc1 [Example 230] | 12.7 | 0.34 | – | > 100 | 0.0631 | 16.7 | 53.5 | 0.0612 | 0.14
4 | CCc1nc2c(C)cc(C)nc2n1Cc1ccc(-c2cc(-c3cn(CC)nn3)ccc2-c2nnn[nH]2)cc1 [Example 234, 2-Ethyl-3-((5′-(1-ethyl-1H-1,2,3-triazol-4-yl)-2′-(1H-tetrazol-5-yl)-[1,1′-biphenyl]-4-yl)methyl)-5,7-dimethyl-3H-imidazo[4,5-b]pyridine] | 18.8 | 0.0193 | 37.1 | 0.0282 | 0.0092 | 59.9 | 93.3 | 0.0034 | 0.0122
5 | CCc1nc2c(C)cc(C)nc2n1Cc1ccc(-c2cc(-c3cn(CCO)nn3)ccc2-c2nnn[nH]2)cc1 [Example 235] | 14.9 | 0.213 | 17.7 | 0.161 | 0.0566 | 56.0 | 89.5 | 0.0296 | 0.129
6 | CCCn1cc(-c2ccc(-c3nnn[nH]3)c(-c3ccc(Cn4c(CC)nc5c(C)cc(C)nc54)cc3)c2)nn1 [Example 236] | 19.2 | 0.0482 | 36.2 | 0.0346 | 0.0125 | 60.8 | 93.3 | 0.0036 | 0.0173
7 | CCc1nc2c(C)cc(C)nc2n1Cc1ccc(-c2cc(-c3cn(CC4CC4)nn3)ccc2-c2nnn[nH]2)cc1 [Example 237] | 13.7 | 0.0797 | 21.1 | 0.0605 | 0.0553 | 62.3 | 84.4 | 0.0163 | 0.112
8 | CCc1nc2c(C)cc(C)nc2n1Cc1ccc(-c2cc(-c3ccccc3)ccc2-c2nsc(=O)[nH]2)cc1 [Example 245] | 12.7 | 0.0894 | 23.3 | 0.0272 | 0.115 | 75.5 | 88.8 | 0.0049 | 0.0241
9 | CCc1nc2c(C)cc(C)nc2n1Cc1ccc(-c2cc(Oc3ccccn3)ccc2-c2nnn[nH]2)cc1 [Example 247, 2-Ethyl-5,7-dimethyl-3-((5′-(pyridin-2-yloxy)-2′-(1H-tetrazol-5-yl)-[1,1′-biphenyl]-4-yl)methyl)-3H-imidazo[4,5-b]pyridine] | – | > 100 | – | > 10 | 0.0069 | 30.8 | 74.4 | 0.0138 | 0.0227
